These results are taken from patent US20100093714A1, “AMIDES OF THIENO[2,3-d]PYRIMIDINE AND THEIR USE AS ADENOSINE A2a RECEPTOR ANTAGONISTS” (priority 2008, published 2010).

Molecules are shown by their SMILES. Structures can show the parent of a compound that is named as a salt. A value given as a limit tells only on which side of the number the result lay.

Assay [1] addresses T1, human adenosine A1 receptor (Homo sapiens, UniProt P30542).
T1 construct: expressed in transfected cells; host or cells: CHO-K1
T1 sequence (P30542 1-326): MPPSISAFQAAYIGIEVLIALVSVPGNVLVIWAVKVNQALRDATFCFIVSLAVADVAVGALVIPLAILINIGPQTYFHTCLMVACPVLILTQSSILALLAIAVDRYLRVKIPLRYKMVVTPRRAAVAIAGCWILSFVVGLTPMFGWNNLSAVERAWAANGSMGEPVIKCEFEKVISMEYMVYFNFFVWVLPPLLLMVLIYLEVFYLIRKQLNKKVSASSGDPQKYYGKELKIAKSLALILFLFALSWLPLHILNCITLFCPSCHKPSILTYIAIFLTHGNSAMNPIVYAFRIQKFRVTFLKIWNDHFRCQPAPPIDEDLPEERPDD
The assay is described as follows: Adenosine A1 Receptor Functional Assay (A1GAL2). The assay is classed as cell-based. The settings on record: CHO-K1 cells, cAMP inducible beta-galactosidase reporter, 4nM r-PIA/1 uM Forskolin agonist challenge. How it is done: (§1) To initiate the functional assay, cryopreserved CHO-K1 cells overexpressing the human adenosine A1 receptor and containing a cAMP inducible beta-galactosidase reporter gene were thawed, centrifuged, DMSO containing media removed, and then seeded with fresh culture media into clear 384-well tissue culture treated plates (BD #353961) at a concentration of 10K cells/well. Prior to assay, these plates were cultured for two days at 37° C., 5% CO2, 90% Rh. On the day of the functional assay, culture media was removed and replaced with 45 uL assay medium (Hams/F-12 Modified (Mediatech #10-080CV) supplemented w/0.1% BSA). Test compounds were diluted and 11 point curves created at a 1000× concentration in 100% DMSO. Immediately after addition of assay media to the cell plates, 50 nL of the appropriate test compound antagonist or agonist control curves were added to cell plates using a Cartesian Hummingbird. Compound curves were allowed to incubate at room temperature on cell plates for approximately 15 minutes before addition of a 4nM r-PIA (Sigma P4532)/1 uM Forskolin (Sigma F3917) agonist challenge (5 uL volume). A control curve of r-PIA in 1 uM Forskolin, a DMSO/Media control, and a single dose of Forskolin were also included on each plate. After additions, cell plates were allowed to incubate at 37° C., 5% CO2, 90% Rh for 5.5-6 hours. After incubation, media was removed, and cell plates were washed 1×50 uL with DPBS w/o Ca & Mg (Mediatech 21-031-CV). Into dry wells, 20 uL of 1× Reporter Lysis Buffer (Promega E3971 (diluted in dH2O from 5× stock)) was added to each well and plates frozen at −20° C. overnight. For β-galactosidase enzyme calorimetric assay, plates were thawed out at room temperature and 20 μL 2× assay buffer (Promega) was added to each well. Color was allowed to develop at 37° C., 5% CO2, 90% Rh for 1-1.5 h or until reasonable signal appeared. The calorimetric reaction was stopped with the addition of 60 μL/well 1M sodium carbonate. Plates were counted at 405 nm on a SpectraMax Microplate Reader (Molecular Devices). Data was analyzed in Microsoft Excel and IC/EC50 curves were fit using a standardized macro.

Assay [2] has as its target T2, human adenosine A2a receptor (Homo sapiens, UniProt P29274).
T2 construct: expressed in transfected cells; host or cells: CHO-K1
The assay is described as follows: Adenosine A2a Receptor Functional Assay (A2AGAL2). The assay is classed as cell-based. The note with it: CHO-K1 cells, cAMP inducible beta-galactosidase reporter, 15 nM NECA agonist challenge. The method, then:
as §1, with “A2a” for “A1”, “15 nM NECA” for “4nM r-PIA”, “E2387)” for “P4532)/1 uM Forskolin (Sigma F3917)”, “NECA,” for “r-PIA in 1 uM Forskolin,”, “Forskolin (Sigma F3917)” for “Forskolin”

As a reminder, the Ki is the equilibrium dissociation constant of an inhibitor or competing ligand from its target. A high value points to lower affinity.

T2 sequence (P29274 whole entry): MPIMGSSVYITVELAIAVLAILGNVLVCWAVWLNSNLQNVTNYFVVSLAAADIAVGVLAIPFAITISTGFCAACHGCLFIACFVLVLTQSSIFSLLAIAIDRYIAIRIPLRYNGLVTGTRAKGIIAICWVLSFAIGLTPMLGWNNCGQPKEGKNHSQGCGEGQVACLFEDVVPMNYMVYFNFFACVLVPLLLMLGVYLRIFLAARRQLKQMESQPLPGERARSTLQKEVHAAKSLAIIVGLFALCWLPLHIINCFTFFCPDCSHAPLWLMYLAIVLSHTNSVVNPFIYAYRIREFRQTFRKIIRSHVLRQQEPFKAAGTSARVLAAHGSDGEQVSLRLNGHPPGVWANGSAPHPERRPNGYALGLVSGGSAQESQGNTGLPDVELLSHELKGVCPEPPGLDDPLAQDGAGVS

On to `Cc1csc(-c2nc(N)c3cc(C(=O)N4CCN(c5ccncc5)CC4)sc3n2)n1` [Example 8, [4-Amino-2-(4-methyl-thiazol-2-yl)-thieno[2,3-d]pyrimidin-6-yl]-(4-pyridin-4-yl-piperazin-1-yl)-methanone], for which the figures for the Ki in assay [1] and in assay [2] were above 1070 nM and 222 nM, respectively.

As to `Cc1cc(-c2nc(N)c3cc(C(=O)N4CCOCC4)sc3n2)no1` [Example 17, [4-Amino-2-(5-methyl-isoxazol-3-yl)-thieno[2,3-d]pyrimidin-6-yl]-morpholin-4-yl-methanone], the results for the Ki in assay [1] and in assay [2] were above 923 nM and 528 nM, respectively.

Take `Cc1csc(-c2nc(N)c3cc(C(=O)NCCN4CCS(=O)(=O)CC4)sc3n2)n1` [Example 7, 4-Amino-2-(4-methyl-thiazol-2-yl)-thieno[2,3-d]pyrimidine-6-carboxylic acid[2-(1,1-dioxo-1-thiomorpholin-4-yl)-ethyl]-amide]: the Ki in assay [1] is around 927 nM; in assay [2], 193 nM.

In the case of `Nc1nc(-c2ncco2)nc2sc(C(=O)N3CCOCC3)cc12` [Example 6, (4-Amino-2-oxazol-2-yl-thieno[2,3-d]pyrimidin-6-yl)-morpholin-4-yl-methanone], the Ki in assay [1] was above 10000 nM; in assay [2], 361 nM.

Consider `Cc1csc(-c2nc(N)c3cc(C(=O)N4CCN(C(C)(C)C)CC4)sc3n2)n1` [Example 23, [4-Amino-2-(4-methyl-thiazol-2-yl)-thieno[2,3-d]pyrimidin-6-yl]-(4-tert-butyl-piperazin-1-yl)-methanone], for which the Ki in assay [1] was above 1310 nM; in assay [2], 367 nM.

For the compound `Nc1nc(-c2ccc(C3CC3)o2)nc2sc(C(=O)N3CCOCC3)cc12` [Example 29, [4-Amino-2-(5-cyclopropyl-furan-2-yl)-thieno[2,3-d]pyrimidin-6-yl]-morpholin-4-yl-methanone], the Ki in assay [1] was above 1070 nM; in assay [2] it was 236 nM.

Take `Cc1csc(-c2nc(N)c3cc(C(=O)NCc4ccc(Cl)nc4)sc3n2)n1` [Example 20, 4-Amino-2-(4-methyl-thiazol-2-yl)-thieno[2,3-d]pyrimidine-6-carboxylic acid(6-chloro-pyridin-3-yl-methyl)-amide hydrochloride]: the Ki in assay [1] was determined as 508 nM; in assay [2] it was 109 nM.

`Cc1csc(-c2nc(N)c3cc(C(=O)NC4CCOCC4)sc3n2)n1` [Example 12, 4-Amino-2-(4-methyl-thiazol-2-yl)-thieno[2,3-d]pyrimidine-6-carboxylic acid(tetrahydro-pyran-4-yl)-amide]: the Ki is 443 nM in assay [1] and 21.9 nM in assay [2].

With `Nc1nc(-c2ncco2)nc2sc(C(=O)NCc3ccccn3)cc12` [Example 24, 4-Amino-2-oxazol-2-yl-thieno[2,3-d]pyrimidine-6-carboxylic acid(pyridin-2-ylmethyl)-amide], the Ki in assay [1] worked out at 422 nM; in assay [2], 137 nM.

As to `N#Cc1cccc(-c2nc(N)c3cc(C(=O)NCCc4cccnc4)sc3n2)c1` [Example 16, 4-Amino-2-(3-cyano-phenyl)-thieno[2,3-d]pyrimidine-6-carboxylic acid(2-pyridin-3-yl-ethyl)-amide], the values for the Ki in assay [1] and in assay [2] were 467 nM and 115 nM, respectively.

Consider `Nc1nc(-c2ncco2)nc2sc(C(=O)NC3CCOCC3)cc12` [Example 13, 4-Amino-2-oxazol-2-yl-thieno[2,3-d]pyrimidine-6-carboxylic acid(tetrahydro-pyran-4-yl)-amide], for which the Ki in assay [1] was above 1000 nM; in assay [2] it was 99.2 nM.

Regarding `Nc1nc(-c2ccc(C3CC3)o2)nc2sc(C(=O)NCc3cccnc3)cc12` [Example 14, 4-Amino-2-(5-cyclopropyl-furan-2-yl)-thieno[2,3-d]pyrimidine-6-carboxylic acid(pyridin-3-ylmethyl)-amide], the Ki in assay [1] is above 610 nM; in assay [2] it was 1550 nM.

Turning to `N#Cc1cccc(-c2nc(N)c3cc(C(=O)NCCN4CCOCC4)sc3n2)c1` [Example 10, 4-Amino-2-(3-cyano-phenyl)-thieno[2,3-d]pyrimidine-6-carboxylic acid(2-morpholin-4-yl-ethyl)-amide], the Ki in assay [1] was 52.6 nM; in assay [2] it was 34.7 nM.

Regarding `Cc1csc(-c2nc(N)c3cc(C(=O)NCc4cccnc4)sc3n2)n1` [Example 27, 4-Amino-2-(4-methyl-thiazol-2-yl)-thieno[2,3-d]pyrimidine-6-carboxylic acid(pyridin-3-ylmethyl)-amide], the Ki in assay [1] was 245 nM; in assay [2], 40.3 nM.

Take `CC(C)c1ccc(-c2nc(N)c3cc(C(=O)N4CCOCC4)sc3n2)o1` [Example 30, [4-Amino-2-(5-isopropyl-furan-2-yl)-thieno[2,3-d]pyrimidin-6-yl]-morpholin-4-yl-methanone]: the Ki stood at 522 nM in assay [1] and 236 nM in assay [2].

Take `Nc1nc(-c2nc(C(F)(F)F)cs2)nc2sc(C(=O)N3CCOCC3)cc12` [Example 26, [4-Amino-2-(4-trifluoromethyl-thiazol-2-yl)-thieno[2,3-d]pyrimidin-6-yl]-morpholin-4-yl-methanone]: the Ki in assay [1] is above 1310 nM; in assay [2], 92.9 nM.

Consider `Nc1nc(-c2ncco2)nc2sc(C(=O)NCCN3CCOCC3)cc12` [Example 25, 4-Amino-2-oxazol-2-yl-thieno[2,3-d]pyrimidine-6-carboxylic acid(2-morpholin-4-yl-ethyl)-amide], for which the Ki in assay [1] is above 1310 nM; in assay [2] it was 287 nM.

For `N#Cc1cccc(-c2nc(N)c3cc(C(=O)NCc4ccccn4)sc3n2)c1` [Example 15, 4-Amino-2-(3-cyano-phenyl)-thieno[2,3-d]pyrimidine-6-carboxylic acid(pyridin-2-ylmethyl)-amide], the Ki in assay [1] was determined as 113 nM; in assay [2] it was 29 nM.

Turning to `CCN1CCN(C(=O)c2cc3c(N)nc(-c4nc(C)cs4)nc3s2)CC1` [Example 18, [4-Amino-2-(4-methyl-thiazol-2-yl)-thieno[2,3-d]pyrimidin-6-yl]-(4-ethyl-piperazin-1-yl)-methanone hydrochloride], the figures for the Ki in assay [1] and in assay [2] were above 948 nM and 195 nM, respectively.

As to `Cc1cc(-c2nc(N)c3cc(C(=O)NCc4cccnc4)sc3n2)no1` [Example 21, 4-Amino-2-(5-methyl-isoxazol-3-yl)-thieno[2,3-d]pyrimidine-6-carboxylic acid(pyridin-3-ylmethyl)-amide], the Ki in assay [1] came out at 26.9 nM; in assay [2], 310 nM.

As to `Cc1csc(-c2nc(N)c3cc(C(=O)N4CCN(c5nccs5)CC4)sc3n2)n1` [Example 33, [4-Amino-2-(4-methyl-thiazol-2-yl)-thieno[2,3-d]pyrimidin-6-yl]-(4-thiazol-2-yl-piperazin-1-yl)-methanone], the inhibitory constant (Ki) in assay [1] is 978 nM; in assay [2], 81.9 nM.
